Experimental data published in US20210038564A1, “METHODS FOR SCAR PREVENTION” (Northwestern University, priority 2009, published 2021).

Tested on: hypertrophic scar formation
Assay: Hypertrophic scar model in rabbit ear, 7-mm wounds, scar elevation index
Assay type: in vivo, rabbit (New Zealand White)
Description: Using a well-established hypertrophic scar model in rabbit ear (Brown et al. (2008) Plast. Reconstr. Surg. 121:1165-1172; Kim et al. (2003) Wound Repair Regen. 11:368-372; Kryger et al. (2007) J Am. Coll. Surg. 205:78-88; Lu et al. (2005) J Am. Coll. Surg. 201:391-397; Morris et al. (2007) Plast. Reconstr. Surg. 100:674-681; Reid et al. (2006) Wound Repair Regen. 14:138-141; Reid et al. (2007) J Plast. Reconstr. Aesthet. Surg. 60:64-72; Saulis et al. (2002) Plast. Reconstr. Surg. 110:177-183; each herein incorporated by reference in its entirety), the effects of local administration of statins (e.g., Simvastatin, Lovastatin, Prevastatin) were investigated in experiments conducted during the course of developing some embodiments of the present technology. […] The effectiveness of statin administration on inhibition of hypertrophic scar formation was assessed by histological determination of scar elevation index (FIG. 1). The scar elevation index is determined by the ratio of total wound area tissue height to the area of normal tissue below the hypertrophic scar. […]
Whereas the dosages in terms of μMol were equivalent for all 3 statins, the μg dosage levels for Lovastatin and Prevastatin were double those used for Simvastatin. Scar Elevation Index was determined for 28 rabbits, as indicated: […]

CC[C@H](C)C(=O)O[C@H]1C[C@@H](C)C=C2C=C[C@H](C)[C@H](CC[C@@H]3C[C@@H](O)CC(=O)O3)[C@H]21 [Lovastatin]
hypertrophic scar formation (40 μM per wound, local injection): inhibit hypertrophic scar formation | scar elevation index (SEI) (lowest level of drug administered (40 μM per wound), injections on days 15, 20, 25, harvest on day 35, versus vehicle): significantly lower SEI
